{"source": "patent US20100298141A1", "about": "“SUBSTITUTED PYRIDINE N-OXIDE HERBICIDES” (E. I. DU PONT DE NEMOURS AND COMPANY, priority 2007, published 2010)", "key": {"[1]": {"tested_on": "morningglory", "experiment": "Test A pre-/postemergence greenhouse test", "type": "in vivo, Ipomoea spp.", "details": "for Morningglory plant response rating: 0 to 100 scale", "procedure,_shortened": "(§1)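 Each test compound, dissolved in a non-phytotoxic solvent mixture with surfactant, was sprayed directly onto seeded soil (loam/sand blend) and, at the same moment, onto seedlings carrying one to two leaves. Around ten greenhouse days later, plants were rated visually for injury relative to untreated controls.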"}, "[2]": {"tested_on": "redroot pigweed", "experiment": "Test A pre-/postemergence greenhouse test", "type": "in vivo, Amaranthus retroflexus", "details": "for Pigweed plant response rating: 0 to 100 scale", "procedure,_shortened": "as §1"}, "[3]": {"tested_on": "blackgrass", "experiment": "Test C pre-/postemergence test", "type": "in vivo, Alopecurus myosuroides", "procedure,_shortened": "(§2)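 Test chemicals were formulated with surfactant in a non-phytotoxic solvent and sprayed both on freshly planted seeds (preemergence) and on 1- to 4-leaf plants of 2–18 cm (postemergence). Flooded-paddy pots received compound directly into 3 cm of standing water, maintained for the test.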"}, "[4]": {"tested_on": "downy brome", "experiment": "Test C pre-/postemergence test", "type": "in vivo, Bromus tectorum", "procedure,_shortened": "as §2"}, "[5]": {"tested_on": "green foxtail", "experiment": "Test C pre-/postemergence test", "type": "in vivo, Setaria viridis", "procedure,_shortened": "as §2"}, "[6]": {"tested_on": "wild oat", "experiment": "Test C pre-/postemergence test", "type": "in vivo, Avena fatua", "procedure,_shortened": "as §2"}, "[7]": {"tested_on": "catchweed bedstraw", "experiment": "Test C pre-/postemergence test", "type": "in vivo, Galium aparine", "procedure,_shortened": "as §2"}, "[8]": {"tested_on": "bermudagrass", "experiment": "Test C pre-/postemergence test", "type": "in vivo, Cynodon dactylon", "procedure,_shortened": "as §2"}, "[9]": {"tested_on": "cocklebur", "experiment": "Test C pre-/postemergence test", "type": "in vivo, Xanthium strumarium", "procedure,_shortened": "as §2"}, "[10]": {"tested_on": "woolly cupgrass", "experiment": "Test C pre-/postemergence test", "type": "in vivo, Eriochloa villosa", "procedure,_shortened": "as §2"}, "[11]": {"tested_on": "kochia", "experiment": "Test C pre-/postemergence test", "type": "in vivo, Kochia scoparia", "procedure,_shortened": "as §2"}, "[12]": {"tested_on": "lambsquarters", "experiment": "Test C pre-/postemergence test", "type": "in vivo, Chenopodium album", "procedure,_shortened": "as §2"}, "[13]": {"tested_on": "yellow nutsedge", "experiment": "Test C pre-/postemergence test", "type": "in vivo, Cyperus esculentus", "procedure,_shortened": "as §2"}, "[14]": {"tested_on": "soybean", "experiment": "Test C pre-/postemergence test", "type": "in vivo, Glycine max", "procedure,_shortened": "as §2"}, "[15]": {"tested_on": "rice", "experiment": "Test C flooded paddy test", "type": "in vivo, Oryza sativa", "details": "Flood", "procedure,_shortened": "(§3)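 Compound was added to standing water 3 cm above soil, flood maintained, and plants held in a greenhouse before visual scoring against controls at 13 to 15 days.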"}, "[16]": {"tested_on": "duck salad", "experiment": "Test C flooded paddy test", "type": "in vivo, Heteranthera limosa", "details": "Flood", "procedure,_shortened": "as §3"}, "[17]": {"details": "Postemergence, 125 g ai/ha, 0 to 100 scale where 0 is no effect and 100 is complete control"}, "[18]": {"details": "Postemergence, 500 g ai/ha, 0 is no effect, 100 is complete control"}, "[19]": {"details": "Preemergence, 125 g ai/ha, 0 no effect, 100 complete control"}, "[20]": {"details": "Preemergence, 500 g ai/ha, 0 no effect, 100 complete control"}, "[21]": {"details": "62 g ai/ha, Preemergence, scale 0 to 100"}, "[22]": {"details": "125 g ai/ha, preemergence, scale 0 (no effect) to 100 (complete control)"}, "[23]": {"details": "Preemergence, 31 g ai/ha, scale 0 to 100 (0 no effect, 100 complete control)"}, "[24]": {"details": "preemergence, 250 g ai/ha, scale 0 (no effect) to 100 (complete control)"}, "[25]": {"details": "31 g ai/ha, scale 0 to 100 (0 no effect, 100 complete control)"}, "[26]": {"details": "62 g ai/ha, scale 0 to 100 (0 no effect, 100 complete control)"}, "[27]": {"details": "125 g ai/ha, scale 0 to 100, 0 no effect, 100 complete control, 13 to 15 days"}, "[28]": {"details": "250 g ai/ha, scale 0 to 100, 0 no effect, 100 complete control, 13 to 15 days"}}, "data": [{"compound": "CC(C)c1cc[n+]([O-])c([S+]([O-])Cc2c(C(F)(F)F)nn(C)c2OC(F)F)c1", "note": "(stereo not shown) [Compound 109]", "values": [{"measurement": "Plant response rating, Morningglory", "setting": "[1]; [17]", "value": 60}, {"measurement": "Morningglory plant response rating", "setting": "[1]; [18]", "value": 90}, {"measurement": "Morningglory plant response rating", "setting": "[1]; [19]", "value": 60}, {"measurement": "Morningglory plant response rating", "setting": "[1]; [20]", "value": 100}, {"measurement": "Plant response rating, Pigweed", "setting": "[2]; [17]", "value": 60}, {"measurement": "Pigweed plant response rating", "setting": "[2]; [18]", "value": 90}, {"measurement": "Pigweed plant response rating", "setting": "[2]; [19]", "value": 100}, {"measurement": "Pigweed plant response rating", "setting": "[2]; [20]", "value": 100}, {"measurement": "Blackgrass plant response rating", "setting": "[3]; [21]", "value": 70}, {"measurement": "Blackgrass plant response rating", "setting": "[3]; [22]", "value": 80}, {"measurement": "Plant response rating, Blackgrass", "setting": "[3]; [23]", "value": 40}, {"measurement": "Blackgrass plant response rating", "setting": "[3]; [24]", "value": 80}, {"measurement": "Bromegrass, Downy plant response rating", "setting": "[4]; [21]", "value": 40}, {"measurement": "Bromegrass, Downy plant response rating", "setting": "[4]; [22]", "value": 95}, {"measurement": "Plant response rating, Bromegrass, Downy", "setting": "[4]; [23]", "value": 40}, {"measurement": "Bromegrass, Downy plant response rating", "setting": "[4]; [24]", "value": 100}, {"measurement": "Foxtail, Green plant response rating", "setting": "[5]; [21]", "value": 95}, {"measurement": "Foxtail, Green plant response rating", "setting": "[5]; [22]", "value": 100}, {"measurement": "Plant response rating, Foxtail, Green", "setting": "[5]; [23]", "value": 50}, {"measurement": "Foxtail, Green plant response rating", "setting": "[5]; [24]", "value": 100}, {"measurement": "Oat, Wild plant response rating", "setting": "[6]; [21]", "value": 70}, {"measurement": "Oat, Wild plant response rating", "setting": "[6]; [22]", "value": 90}, {"measurement": "Plant response rating, Oat, Wild", "setting": "[6]; [23]", "value": 50}, {"measurement": "Oat, Wild plant response rating", "setting": "[6]; [24]", "value": 98}, {"measurement": "Galium plant response rating", "setting": "[7]; [21]", "value": 90}, {"measurement": "Galium plant response rating", "setting": "[7]; [22]", "value": 100}, {"measurement": "Plant response rating, Galium", "setting": "[7]; [23]", "value": 60}, {"measurement": "Galium plant response rating", "setting": "[7]; [24]", "value": 100}, {"measurement": "Bermudagrass plant response rating", "setting": "[8]; 62 g ai/ha, Preemergence, scale 0 to 100 (0 no effect, 100 complete control)", "value": 100}, {"measurement": "Bermudagrass plant response rating", "setting": "[8]; [22]", "value": 100}, {"measurement": "Plant response rating, Bermudagrass", "setting": "[8]; [23]", "value": 95}, {"measurement": "Bermudagrass plant response rating", "setting": "[8]; [24]", "value": 100}, {"measurement": "Cocklebur plant response rating", "setting": "[9]; [21]", "value": 0}, {"measurement": "Cocklebur plant response rating", "setting": "[9]; [22]", "value": 0}, {"measurement": "Plant response rating, Cocklebur", "setting": "[9]; [23]", "value": 0}, {"measurement": "Cocklebur plant response rating", "setting": "[9]; [24]", "value": 60}, {"measurement": "Cupgrass, Woolly plant response rating", "setting": "[10]; [21]", "value": 95}, {"measurement": "Cupgrass, Woolly plant response rating", "setting": "[10]; [22]", "value": 98}, {"measurement": "Plant response rating, Cupgrass, Woolly", "setting": "[10]; [23]", "value": 70}, {"measurement": "Cupgrass, Woolly plant response rating", "setting": "[10]; [24]", "value": 98}, {"measurement": "Kochia plant response rating", "setting": "[11]; [21]", "value": 90}, {"measurement": "Kochia plant response rating", "setting": "[11]; [22]", "value": 100}, {"measurement": "Plant response rating, Kochia", "setting": "[11]; [23]", "value": 80}, {"measurement": "Kochia plant response rating", "setting": "[11]; [24]", "value": 100}, {"measurement": "Lambsquarters plant response rating", "setting": "[12]; [21]", "value": 100}, {"measurement": "Lambsquarters plant response rating", "setting": "[12]; [22]", "value": 100}, {"measurement": "Plant response rating, Lambsquarters", "setting": "[12]; [23]", "value": 100}, {"measurement": "Lambsquarters plant response rating", "setting": "[12]; [24]", "value": 100}, {"measurement": "Nutsedge, Yellow plant response rating", "setting": "[13]; [21]", "value": 80}, {"measurement": "Nutsedge, Yellow plant response rating", "setting": "[13]; [22]", "value": 98}, {"measurement": "Plant response rating, Nutsedge, Yellow", "setting": "[13]; [23]", "value": 80}, {"measurement": "Nutsedge, Yellow plant response rating", "setting": "[13]; [24]", "value": 100}, {"measurement": "Soybean plant response rating", "setting": "[14]; [21]", "value": 50}, {"measurement": "Soybean plant response rating", "setting": "[14]; [22]", "value": 85}, {"measurement": "Plant response rating, Soybean", "setting": "[14]; [23]", "value": 45}, {"measurement": "Soybean plant response rating", "setting": "[14]; [24]", "value": 95}, {"measurement": "Plant response rating, Rice", "setting": "[15]; [25]", "value": 0}, {"measurement": "Plant response rating, Rice", "setting": "[15]; [26]", "value": 0}, {"measurement": "Plant response rating, Rice", "setting": "[15]; [27]", "value": 0}, {"measurement": "Plant response rating, Rice", "setting": "[15]; [28]", "value": 20}, {"measurement": "Plant response rating, Ducksalad", "setting": "[16]; [25]", "value": 0}, {"measurement": "Plant response rating, Ducksalad", "setting": "[16]; [26]", "value": 40}, {"measurement": "Plant response rating, Ducksalad", "setting": "[16]; [27]", "value": 45}, {"measurement": "Plant response rating, Ducksalad", "setting": "[16]; [28]", "value": 65}]}]}
